How the values were obtained:
HT1080 tumors = assay: Human fibrosarcoma (HT1080) orthotopically implanted in athymic nude mice, total diameter (tumor+leg) % T/C; assay type: in vivo
Experimental: (§1) Female athymic nude mice (Harlan Laboratories Models, S.L. (Barcelona, Spain) were utilized for all experiments. Animals were housed in individually ventilated cages, up to ten per cage in a 12-hour light-dark cycle at 21-23° C. and 40-60% humidity. The mice were allowed free access to irradiated standard rodent diet and sterilized water. Animals were acclimated for at least 5 days prior to tumor implantation with a tumor cell suspension.
HT1080 cells were grown at 37° C. with 5% CO2 in Minimum Essential Medium Eagle (MEME). Each animal was orthotopically implanted into gastroecnemius muscle by an intramuscular injection using 26G needle and a 1 cc syringe, with 5×10^6 HT1080 cells, from in vitro passage 9, suspended in serum free medium, without antibiotics.
Total diameter (tumor+leg) measurements were determined by using digital caliper (Fowler Sylvac, S235PAT). This total diameter and animal body weights were measured 2-3 times per week starting from the first day of treatment.
Treatment tolerability was assessed by monitoring body weight evolution, clinical signs as well as evidences of local damage in the injection site.
PM01183 was provided in the form of vials of lyophilized PM01183 cake which was reconstituted with water for infusion to a concentration of 0.2 mg/mL. The PM01183 stock solution was further diluted in 5% glucose solution for injection to the dosing formulation concentrations. Dacarbazine was provided in the form of a solution prepared by diluting the product with 5% glucose solution for injection to the target final concentration.
(§2) Dose level groups were administered either as single agents or in combination.
Comparison of the median total diameter (tumor+leg) in the treatment groups (T) to the median total diameter (tumor+leg) in the control group (T/C×100%) was used for evaluation of the antitumor efficacy.

HGC-27 tumors = assay: Human gastric tumor xenografts (HGC-27) in athymic nude mice, tumor volume % T/C; assay type: in vivo
Experimental: as §1
HGC-27 cells were grown at 37° C. with 5% CO2 in Iscove's modified Dulbeco's medium (IDMD).
PM01183 was provided in the form of vials of lyophilized PM01183 cake which was reconstituted with water for infusion to a concentration of 0.2 mg/mL. The PM01183 stock solution was further diluted in 5% glucose solution for injection to the dosing formulation concentrations. Cisplatin and 5-fluorouracil were provided as solutions prepared by diluting the product with 0.9% saline solution for injection to the target final concentration.
as §2
Comparison of the median tumor volume in the treatment groups (T) to the median tumor volume in the control group (T/C×100%) was used for evaluation of the antitumor efficacy.

[1] = PM01183 0.135 mg/kg iv days 0,7
[2] = PM01183 0.045 mg/kg iv days 0,7, 5-fluorouracil study
[3] = PM01183 0.045 mg/kg iv days 0,7, cisplatin study
[4] = PM01183 0.09 mg/kg iv days 0,7, 5-fluorouracil study
[5] = PM01183 0.09 mg/kg iv days 0,7, cisplatin study
[6] = PM01183 0.135 mg/kg iv days 0,7, 5-fluorouracil study
[7] = PM01183 0.135 mg/kg iv days 0,7, cisplatin study
[8] = PM01183 0.18 mg/kg iv days 0,7, 5-fluorouracil study
[9] = PM01183 0.18 mg/kg iv days 0,7, cisplatin study

**Q.** Which results are given for `COc1ccc2[nH]c3c(c2c1)CCN[C@]31CS[C@@H]2c3c(OC(C)=O)c(C)c4c(c3[C@H](COC1=O)N1[C@@H]2[C@H]2c3c(cc(C)c(OC)c3O)C[C@@H]([C@@H]1O)N2C)OCO4` [PM01183]?
**A.** % T/C on day 0 (HT1080 tumors; PM01183 0.045 mg/kg): 100%; % T/C on day 2 (HT1080 tumors; PM01183 0.045 mg/kg): 77.8%; % T/C on day 4 (HT1080 tumors; PM01183 0.045 mg/kg): 74.3%; % T/C on day 7 (HT1080 tumors; PM01183 0.045 mg/kg): 94.2%; % T/C on day 9 (HT1080 tumors; PM01183 0.045 mg/kg): 80.0%; % T/C on day 11 (HT1080 tumors; PM01183 0.045 mg/kg): 74.0%; % T/C on day 14 (HT1080 tumors; PM01183 0.045 mg/kg): 80.5%; % T/C on day 16 (HT1080 tumors; PM01183 0.045 mg/kg): 91.1%; % T/C on day 0 (HT1080 tumors; PM01183 0.09 mg/kg): 100%; % T/C on day 2 (HT1080 tumors; PM01183 0.09 mg/kg): 66.7%; % T/C on day 4 (HT1080 tumors; PM01183 0.09 mg/kg): 57.1%; % T/C on day 7 (HT1080 tumors; PM01183 0.09 mg/kg): 65.4%; % T/C on day 9 (HT1080 tumors; PM01183 0.09 mg/kg): 48.0%; % T/C on day 11 (HT1080 tumors; PM01183 0.09 mg/kg): 42.7%; % T/C on day 14 (HT1080 tumors; PM01183 0.09 mg/kg): 45.8%; % T/C on day 16 (HT1080 tumors; PM01183 0.09 mg/kg): 56.4%; % T/C (median total diameter, tumor+leg) on day 9 (HT1080 tumors; [1]): 36.0%; % T/C (median total diameter, tumor+leg) on day 11 (HT1080 tumors; [1]): 30.2%; % T/C (median total diameter, tumor+leg) on day 14 (HT1080 tumors; [1]): 33.0%; % T/C (median total diameter, tumor+leg) on day 16 (HT1080 tumors; [1]): 41.9%; % T/C on day 0 (HT1080 tumors; PM01183 0.135 mg/kg): 100%; % T/C on day 2 (HT1080 tumors; PM01183 0.135 mg/kg): 63.0%; % T/C on day 4 (HT1080 tumors; PM01183 0.135 mg/kg): 62.9%; % T/C on day 7 (HT1080 tumors; PM01183 0.135 mg/kg): 48.1%; % T/C on day 9 (HT1080 tumors; PM01183 0.135 mg/kg): 36.0%; % T/C on day 11 (HT1080 tumors; PM01183 0.135 mg/kg): 30.2%; % T/C on day 14 (HT1080 tumors; PM01183 0.135 mg/kg): 33.0%; % T/C on day 16 (HT1080 tumors; PM01183 0.135 mg/kg): 41.9%; % T/C (median total diameter, tumor+leg) on day 9 (HT1080 tumors; PM01183 0.18 mg/kg iv days 0,7): 26.7%; % T/C (median total diameter, tumor+leg) on day 11 (HT1080 tumors; PM01183 0.18 mg/kg iv days 0,7): 11.5%; % T/C (median total diameter, tumor+leg) on day 14 (HT1080 tumors; PM01183 0.18 mg/kg iv days 0,7): 21.2%; % T/C (median total diameter, tumor+leg) on day 16 (HT1080 tumors; PM01183 0.18 mg/kg iv days 0,7): 30.6%; % T/C on day 0 (HT1080 tumors; PM01183 0.18 mg/kg): 100%; % T/C on day 2 (HT1080 tumors; PM01183 0.18 mg/kg): 59.3%; % T/C on day 4 (HT1080 tumors; PM01183 0.18 mg/kg): 40.0%; % T/C on day 7 (HT1080 tumors; PM01183 0.18 mg/kg): 26.9%; % T/C on day 9 (HT1080 tumors; PM01183 0.18 mg/kg): 26.7%; % T/C on day 11 (HT1080 tumors; PM01183 0.18 mg/kg): 11.5%; % T/C on day 14 (HT1080 tumors; PM01183 0.18 mg/kg): 21.2%; % T/C on day 16 (HT1080 tumors; PM01183 0.18 mg/kg): 30.6%; % T/C on day 0 (HGC-27 tumors; [2]): 99.9%; % T/C on day 2 (HGC-27 tumors; [2]): 84.3%; % T/C on day 5 (HGC-27 tumors; [2]): 103.2%; % T/C on day 7 (HGC-27 tumors; [2]): 104.6%; % T/C on day 9 (HGC-27 tumors; [2]): 103.5%; % T/C on day 12 (HGC-27 tumors; [2]): 101.6%; % T/C on day 14 (HGC-27 tumors; [2]): 85.0%; % T/C on day 0 (HGC-27 tumors; [3]): 98.9%; % T/C on day 3 (HGC-27 tumors; [3]): 85.9%; % T/C on day 5 (HGC-27 tumors; [3]): 83.1%; % T/C on day 7 (HGC-27 tumors; [3]): 92.1%; % T/C on day 10 (HGC-27 tumors; [3]): 76.4%; % T/C on day 12 (HGC-27 tumors; [3]): 81.6%; % T/C on day 14 (HGC-27 tumors; [3]): 88.5%; % T/C on day 0 (HGC-27 tumors; [4]): 100.6%; % T/C on day 2 (HGC-27 tumors; [4]): 90.5%; % T/C on day 5 (HGC-27 tumors; [4]): 87.6%; % T/C on day 7 (HGC-27 tumors; [4]): 83.4%; % T/C on day 9 (HGC-27 tumors; [4]): 82.6%; % T/C on day 12 (HGC-27 tumors; [4]): 76.7%; % T/C on day 14 (HGC-27 tumors; [4]): 67.7%; % T/C on day 0 (HGC-27 tumors; [5]): 98.6%; % T/C on day 3 (HGC-27 tumors; [5]): 67.5%; % T/C on day 5 (HGC-27 tumors; [5]): 67.9%; % T/C on day 7 (HGC-27 tumors; [5]): 66.1%; % T/C on day 10 (HGC-27 tumors; [5]): 70.2%; % T/C on day 12 (HGC-27 tumors; [5]): 60.3%; % T/C on day 14 (HGC-27 tumors; [5]): 65.0%; % T/C on day 0 (HGC-27 tumors; [6]): 100.2%; % T/C on day 2 (HGC-27 tumors; [6]): 81.5%; % T/C on day 5 (HGC-27 tumors; [6]): 58.7%; % T/C on day 7 (HGC-27 tumors; [6]): 61.4%; % T/C on day 9 (HGC-27 tumors; [6]): 60.2%; % T/C on day 12 (HGC-27 tumors; [6]): 54.6%; % T/C on day 14 (HGC-27 tumors; [6]): 55.1%; % T/C on day 0 (HGC-27 tumors; [7]): 97.9%; % T/C on day 3 (HGC-27 tumors; [7]): 71.6%; % T/C on day 5 (HGC-27 tumors; [7]): 59.9%; % T/C on day 7 (HGC-27 tumors; [7]): 47.8%; % T/C on day 10 (HGC-27 tumors; [7]): 39.3%; % T/C on day 12 (HGC-27 tumors; [7]): 37.1%; % T/C on day 14 (HGC-27 tumors; [7]): 38.3%; % T/C on day 0 (HGC-27 tumors; [8]): 99.6%; % T/C on day 2 (HGC-27 tumors; [8]): 78.6%; % T/C on day 5 (HGC-27 tumors; [8]): 50.9%; % T/C on day 7 (HGC-27 tumors; [8]): 43.3%; % T/C on day 9 (HGC-27 tumors; [8]): 41.0%; % T/C on day 12 (HGC-27 tumors; [8]): 33.0%; % T/C on day 14 (HGC-27 tumors; [8]): 29.2%; % T/C on day 0 (HGC-27 tumors; [9]): 99.6%; % T/C on day 3 (HGC-27 tumors; [9]): 65.9%; % T/C on day 5 (HGC-27 tumors; [9]): 55.6%; % T/C on day 7 (HGC-27 tumors; [9]): 38.7%; % T/C on day 10 (HGC-27 tumors; [9]): 33.5%; % T/C on day 12 (HGC-27 tumors; [9]): 24.3%; % T/C on day 14 (HGC-27 tumors; [9]): 24.3%
